Test results: patent publication US20250011368A1, “DLL3 TARGETING PEPTIDES AND CONSTRUCTS THEREOF” (MARIANA ONCOLOGY INC., priority 2023, published 2025)
Bridge positions count the residues as written; N and C are the ends. Square brackets hold non-standard residues; d marks the D form. Peptide text beside a SMILES is read from it. * marks the point of attachment. ξ: configuration not given here. DOTA = O=C(O)CN1CCN(CC(=O)O)CCN(CC(=O)*)CCN(CC(=O)O)CC1; Trp(5-F) = N[C@@H](Cc1c[nH]c2ccc(F)cc12)C(=O)O; Phe(2-CF3) = N[C@@H](Cc1ccccc1C(F)(F)F)C(=O)O; Trp(7-aza) = N[C@@H](Cc1c[nH]c2ncccc12)C(=O)O; Pro(trans-4-F) = O=C(O)[C@@H]1C[C@@H](F)CN1; Phe(4-F) = N[C@@H](Cc1ccc(F)cc1)C(=O)O; 1Nal = N[C@@H](Cc1cccc2ccccc12)C(=O)O; 2Nal = N[C@@H](Cc1ccc2ccccc2c1)C(=O)O; Nva(3-Et) = CCC(CC)[C@H](N)C(=O)O; β3hF = N[C@H](CC(=O)O)Cc1ccccc1; Chg = N[C@H](C(=O)O)C1CCCCC1; Tle = CC(C)(C)[C@H](N)C(=O)O; αMeP = C[C@@]1(C(=O)O)CCCN1; Octanoyl = CCCCCCCC(=O)*; Aze = O=C(O)[C@@H]1CCN1; Dab = NCC[C@H](N)C(=O)O; ξK = NCCCCC(N)C(=O)O

Biological target: T1, human DLL3 (Homo sapiens, UniProt Q9NYJ7)
T1 sequence (Q9NYJ7 27-618): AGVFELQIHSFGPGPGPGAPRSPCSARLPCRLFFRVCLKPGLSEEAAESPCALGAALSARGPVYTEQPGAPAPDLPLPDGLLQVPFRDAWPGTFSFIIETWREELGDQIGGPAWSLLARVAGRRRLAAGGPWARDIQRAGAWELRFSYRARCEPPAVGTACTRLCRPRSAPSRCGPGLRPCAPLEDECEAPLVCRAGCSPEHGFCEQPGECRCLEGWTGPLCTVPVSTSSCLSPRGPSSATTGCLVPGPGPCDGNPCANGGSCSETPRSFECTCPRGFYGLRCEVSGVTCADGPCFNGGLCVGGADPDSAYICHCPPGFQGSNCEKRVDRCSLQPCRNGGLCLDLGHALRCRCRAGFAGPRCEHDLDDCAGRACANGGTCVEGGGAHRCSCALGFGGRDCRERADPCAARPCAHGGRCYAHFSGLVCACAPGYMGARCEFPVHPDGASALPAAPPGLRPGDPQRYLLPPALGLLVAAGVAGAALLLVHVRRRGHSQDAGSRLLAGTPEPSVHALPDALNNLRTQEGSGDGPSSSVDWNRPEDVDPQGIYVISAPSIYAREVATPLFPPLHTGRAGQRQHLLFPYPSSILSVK
Test: Affinity determination by Surface Plasmon Resonance (SPR)
Type: binding
Conditions: 25° C., biotinylated human DLL3 immobilized on streptavidin sensor chip, 1:1 binding model; read-out: SPR KD
Procedure: SPR studies were performed on the compounds disclosed herein using the following protocol.
Biotinylated target ligand human DLL3 was immobilized on a streptavidin sensor chip. A reference surface was set up for nonspecific binding and refractive index changes. For analysis of the kinetics of interactions, varying concentrations of samples were injected at a flow rate of 100 μL/minute using running buffer containing 20 mM phosphate buffer with 2.7 mM KCl, 137 mM NaCl, 0.05% Surfactant P20 and 2% DMSO. Sensorgram curves were fitted with 1:1 binding model, and affinity and kinetic parameters were obtained using Biacore Insight evaluation 4.0. software.

SMILES | Kd [nM]
CCCCCCCC(=O)NCC[C@@H]1NC(=O)[C@H](Cc2c[nH]c3ccccc23)NC(=O)[C@H](CC(N)=O)NC(=O)[C@H](CC(N)=O)NC(=O)[C@@H](NC(=O)[C@@H](NC(=O)[C@@H](NC(=O)[C@H](Cc2c[nH]c3ccccc23)NC(C)=O)[C@@H](C)O)[C@@H](C)CC)CSSC[C@@H](C(=O)N[C@@H](Cc2c[nH]c3ccccc23)C(=O)N2CCC[C@H]2C(=O)N[C@H](CCCCNC(=O)CN2CCN(CC(=O)O)CCN(CC(=O)O)CCN(CC(=O)O)CC2)C(N)=O)NC(=O)[C@H](CC(=O)O)NC1=O [compound 93, Ac-W-T-I-C(3)-N-N-W-(DAB-4-NHCOC7H15)-D-C(3)-W-P-[D-Lys(DOTA)]-NH2] (Ac-WTICNNW[Dab](Octanoyl)DCWP[dK](DOTA)-NH2; disulfide 4-10) | 10 to 100
CC[C@H](C)[C@H](NC(=O)[C@@H](NC(=O)[C@H](Cc1c[nH]c2ccccc12)NC(C)=O)[C@@H](C)O)C(=O)N[C@H]1CSSC[C@@H](C(=O)N[C@@H](Cc2c[nH]c3ccccc23)C(=O)N2CCC[C@@]2(C)C(=O)N[C@H](CCCCNC(=O)CN2CCN(CC(=O)O)CCN(CC(=O)O)CCN(CC(=O)O)CC2)C(N)=O)NC(=O)[C@H](CC(=O)O)NC(=O)[C@H](Cc2c[nH]cn2)NC(=O)[C@H](Cc2c[nH]c3ccccc23)NC(=O)[C@H](CC(N)=O)NC(=O)[C@H](CC(N)=O)NC1=O [compound 105, Ac-W-T-I-C(3)-N-N-W-H-D-C(3)-W-(aMe-P)-[D-Lys(DOTA)]-NH2] (Ac-WTICNNWHDCW[αMeP][dK](DOTA)-NH2; disulfide 4-10) | 1 to 10
CC(=O)N[C@@H](Cc1c[nH]c2ccccc12)C(=O)N[C@H](C(=O)N[C@@H](Cc1ccc2ccccc2c1)C(=O)N[C@H]1CSSC[C@@H](C(=O)N[C@@H](Cc2c[nH]c3ccccc23)C(=O)N2CCC[C@H]2C(=O)N[C@H](CCCCNC(=O)CN2CCN(CC(=O)O)CCN(CC(=O)O)CCN(CC(=O)O)CC2)C(N)=O)NC(=O)[C@H](CC(=O)O)NC(=O)[C@H](Cc2c[nH]cn2)NC(=O)[C@H](Cc2c[nH]c3ccccc23)NC(=O)[C@H](CC(N)=O)NC(=O)[C@H](CC(N)=O)NC1=O)[C@@H](C)O [compound 116, Ac-W-T-(2Nal)-C(3)-N-N-W-H-D-C(3)-W-P-[D-Lys(DOTA)]-NH2] (Ac-WT[2Nal]CNNWHDCWP[dK](DOTA)-NH2; disulfide 4-10) | 10 to 100
CC(=O)N[C@@H](Cc1c[nH]c2ccc(F)cc12)C(=O)N[C@H](C(=O)N[C@H](C(=O)N[C@H]1CSSC[C@@H](C(=O)N[C@@H](Cc2c[nH]c3ncccc23)C(=O)N2CC[C@H]2C(=O)NC(CCCCNC(=O)CN2CCN(CC(=O)O)CCN(CC(=O)O)CCN(CC(=O)O)CC2)C(N)=O)NC(=O)[C@H](CC(=O)O)NC(=O)[C@H](Cc2cnc[nH]2)NC(=O)[C@H](Cc2ccc(F)cc2)NC(=O)[C@H](CC(N)=O)NC(=O)[C@H](CC(N)=O)NC1=O)C(C)(C)C)[C@@H](C)O (stereo partly drawn) [compound 121, Ac-(5Fluoro-W)-T-(Tbg)-C(3)-N-N-(4Fluoro-F)-H-D-C(3)-(7Aza-W)-(Aze)-[D-Lys(DOTA)]-NH2] (Ac-[Trp(5-F)]T[Tle]CNN[Phe(4-F)]HDC[Trp(7-aza)][Aze][ξK](DOTA)-NH2; disulfide 4-10) | 10 to 100
CCC(CC)[C@H](NC(=O)[C@@H](NC(=O)[C@H](Cc1c[nH]c2ccc(F)cc12)NC(C)=O)[C@@H](C)O)C(=O)N[C@H]1CSSC[C@@H](C(=O)N[C@@H](Cc2c[nH]c3ncccc23)C(=O)N2CC[C@H]2C(=O)NC(CCCCNC(=O)CN2CCN(CC(=O)O)CCN(CC(=O)O)CCN(CC(=O)O)CC2)C(N)=O)NC(=O)[C@H](CC(=O)O)NC(=O)[C@H](Cc2cnc[nH]2)NC(=O)[C@H](Cc2ccc(F)cc2)NC(=O)[C@H](CC(N)=O)NC(=O)[C@H](CC(N)=O)NC1=O (stereo partly drawn) [compound 122, Ac-(5Fluoro-W)-T-(Env)-C(3)-N-N-(4Fluoro-F)-H-D-C(3)-(7Aza-W)-(Aze)-[D-Lys(DOTA)]-NH2] (Ac-[Trp(5-F)]T[Nva(3-Et)]CNN[Phe(4-F)]HDC[Trp(7-aza)][Aze][ξK](DOTA)-NH2; disulfide 4-10) | 1 to 10

Next, values leading:

Kd [nM] | SMILES
< 1 | CC[C@H](C)[C@H](NC(=O)[C@@H](NC(=O)[C@H](Cc1c[nH]c2ccc(F)cc12)NC(C)=O)[C@@H](C)O)C(=O)N[C@H]1CSSC[C@@H](C(=O)N[C@@H](Cc2c[nH]c3ccccc23)C(=O)N2CCC[C@H]2C(=O)N[C@H](CCCCNC(=O)CN2CCN(CC(=O)O)CCN(CC(=O)O)CCN(CC(=O)O)CC2)C(N)=O)NC(=O)[C@H](CC(=O)O)NC(=O)[C@H](Cc2c[nH]cn2)NC(=O)[C@H](Cc2c[nH]c3ccccc23)NC(=O)[C@H](CC(N)=O)NC(=O)[C@H](CC(N)=O)NC1=O [compound 100, Ac-(5Fluoro-W)-T-I-C(3)-N-N-W-H-D-C(3)-W-P-[D-Lys(DOTA)]-NH2] (Ac-[Trp(5-F)]TICNNWHDCWP[dK](DOTA)-NH2; disulfide 4-10)
< 1 | CC(=O)N[C@@H](Cc1c[nH]c2ccccc12)C(=O)N[C@H](C(=O)N[C@H](C(=O)N[C@H]1CSSC[C@@H](C(=O)N[C@@H](Cc2c[nH]c3ccccc23)C(=O)N2CCC[C@H]2C(=O)N[C@H](CCCCNC(=O)CN2CCN(CC(=O)O)CCN(CC(=O)O)CCN(CC(=O)O)CC2)C(N)=O)NC(=O)[C@H](CC(=O)O)NC(=O)[C@H](Cc2c[nH]cn2)NC(=O)[C@H](Cc2c[nH]c3ccccc23)NC(=O)[C@H](CC(N)=O)NC(=O)[C@H](CC(N)=O)NC1=O)C1CCCCC1)[C@@H](C)O [compound 106, Ac-W-T-(Chg)-C(3)-N-N-W-H-D-C(3)-W-P-[D-Lys(DOTA)]-NH2] (Ac-WT[Chg]CNNWHDCWP[dK](DOTA)-NH2; disulfide 4-10)
10 to 100 | CC(=O)N[C@@H](Cc1c[nH]c2ccccc12)C(=O)N[C@H](C(=O)N[C@@H](Cc1cccc2ccccc12)C(=O)N[C@H]1CSSC[C@@H](C(=O)N[C@@H](Cc2c[nH]c3ccccc23)C(=O)N2CCC[C@H]2C(=O)N[C@H](CCCCNC(=O)CN2CCN(CC(=O)O)CCN(CC(=O)O)CCN(CC(=O)O)CC2)C(N)=O)NC(=O)[C@H](CC(=O)O)NC(=O)[C@H](Cc2c[nH]cn2)NC(=O)[C@H](Cc2c[nH]c3ccccc23)NC(=O)[C@H](CC(N)=O)NC(=O)[C@H](CC(N)=O)NC1=O)[C@@H](C)O [compound 107, Ac-W-T-(1Nal)-C(3)-N-N-W-H-D-C(3)-W-P-[D-Lys(DOTA)]-NH2] (Ac-WT[1Nal]CNNWHDCWP[dK](DOTA)-NH2; disulfide 4-10)
< 1 | CC[C@H](C)[C@H](NC(=O)[C@@H](NC(=O)[C@H](Cc1c[nH]c2ccccc12)NC(C)=O)[C@@H](C)O)C(=O)N[C@H]1CSSC[C@@H](C(=O)N[C@@H](Cc2c[nH]c3ccccc23)C(=O)N2C[C@H](F)C[C@H]2C(=O)N[C@H](CCCCNC(=O)CN2CCN(CC(=O)O)CCN(CC(=O)O)CCN(CC(=O)O)CC2)C(N)=O)NC(=O)[C@H](CC(=O)O)NC(=O)[C@H](Cc2c[nH]cn2)NC(=O)[C@H](Cc2c[nH]c3ccccc23)NC(=O)[C@H](CC(N)=O)NC(=O)[C@H](CC(N)=O)NC1=O [compound 113, Ac-W-T-I-C(3)-N-N-W-H-D-C(3)-W-(trans4Fluoro-P)-[D-Lys(DOTA)]-NH2] (Ac-WTICNNWHDCW[Pro(trans-4-F)][dK](DOTA)-NH2; disulfide 4-10)
< 1 | CC(=O)N[C@@H](Cc1c[nH]c2ccccc12)C(=O)N[C@H](C(=O)N[C@@H](Cc1ccccc1C(F)(F)F)C(=O)N[C@H]1CSSC[C@@H](C(=O)N[C@@H](Cc2c[nH]c3ccccc23)C(=O)N2CCC[C@H]2C(=O)N[C@H](CCCCNC(=O)CN2CCN(CC(=O)O)CCN(CC(=O)O)CCN(CC(=O)O)CC2)C(N)=O)NC(=O)[C@H](CC(=O)O)NC(=O)[C@H](Cc2c[nH]cn2)NC(=O)[C@H](Cc2c[nH]c3ccccc23)NC(=O)[C@H](CC(N)=O)NC(=O)[C@H](CC(N)=O)NC1=O)[C@@H](C)O [compound 114, Ac-W-T-(2CF3-F)-C(3)-N-N-W-H-D-C(3)-W-P-[D-Lys(DOTA)]-NH2] (Ac-WT[Phe(2-CF3)]CNNWHDCWP[dK](DOTA)-NH2; disulfide 4-10)
1 to 10 | CC(=O)N[C@@H](Cc1c[nH]c2ccccc12)C(=O)N[C@H](C(=O)N[C@H](CC(=O)N[C@H]1CSSC[C@@H](C(=O)N[C@@H](Cc2c[nH]c3ccccc23)C(=O)N2CCC[C@H]2C(=O)N[C@H](CCCCNC(=O)CN2CCN(CC(=O)O)CCN(CC(=O)O)CCN(CC(=O)O)CC2)C(N)=O)NC(=O)[C@H](CC(=O)O)NC(=O)[C@H](Cc2c[nH]cn2)NC(=O)[C@H](Cc2c[nH]c3ccccc23)NC(=O)[C@H](CC(N)=O)NC(=O)[C@H](CC(N)=O)NC1=O)Cc1ccccc1)[C@@H](C)O [compound 115, Ac-W-T-(2PhEt-A)-C(3)-N-N-W-H-D-C(3)-W-P-[D-Lys(DOTA)]-NH2] (Ac-WT[β3hF]CNNWHDCWP[dK](DOTA)-NH2; disulfide 4-10)
